In test [1] the target is T1, Recombinant human NGF (Homo sapiens, UniProt P01138).
T1 construct: purchased Peprotech
The experiment in a line: Fluorous sugar-coated microplate direct binding assay, NGF. From the text: (§1) An alternative strategy was also considered to study these molecular recognition events. This approach involved the non-covalent immobilization of the fluorinated hexamer 17 on microtiter plates (Figure 1). Fluorous-based microarrays for the investigation of carbohydrate-protein interactions have been previously developed. A C8F17 tail was employed for the noncovalent immobilization of sugar derivatives on fluorous coated glass slides. However, to the best of our knowledge, an experimental protocol to study the interactions between fluorous sugar-coated conventional microplates and proteins has not been published. […] Thus, we created a fluorinated surface ready for the immobilization of compound 17 through noncovalent fluorous-fluorous interactions. […] Then, the binding of the attached sugar 17 to growth factors was analyzed. Incubation with different concentrations of midkine, FGF-2 and NGF was carried out and the bound protein was detected by further incubations with the corresponding primary and fluorescently labelled secondary antibodies (see Materials and Methods). Finally, the fluorescence was recorded using a standard microplate reader. The observation of fluorescence signals confirmed the interaction between immobilized 17 and the protein at a particular concentration. […]
(§2) The fluorescence was read at 535 nm using a TRIAD multimode microplate reader (from Dynex). […]

Test [2] addresses T2, midkine (Homo sapiens, UniProt P21741).
T2 sequence (P21741 21-143): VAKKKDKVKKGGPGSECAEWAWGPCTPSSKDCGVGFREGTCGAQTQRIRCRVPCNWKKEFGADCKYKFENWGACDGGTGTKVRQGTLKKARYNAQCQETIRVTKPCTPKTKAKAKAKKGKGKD
In words: Fluorous sugar-coated microplate direct binding assay, midkine. Set-up: purchased Peprotech.
Text: as §1, §2

Test [3] concerns the target T3, FGF-2 (Homo sapiens, UniProt P09038). The experiment in a line: Fluorous sugar-coated microplate direct binding assay, FGF-2. Also noted: purchased Peprotech.
Text: as §1, §2
Target sequence in this assay (P09038 135-288 limits assumed): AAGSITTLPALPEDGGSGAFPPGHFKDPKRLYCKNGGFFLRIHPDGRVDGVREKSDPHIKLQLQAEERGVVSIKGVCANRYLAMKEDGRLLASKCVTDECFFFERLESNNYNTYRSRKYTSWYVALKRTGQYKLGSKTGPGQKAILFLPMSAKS

In test [4] the target is T2, midkine. In words: Fluorescence polarization (FP) competition experiment, midkine. The format is binding. The note with it: midkine 63 nM. From the text: (§3) Thus, we initiated the study of the interactions between 17 and midkine, FGF-2 and NGF growth factors. First, we estimated the solution-phase binding affinities using our previously reported fluorescence polarization (FP) competition experiment (see Supplementary Materials). Briefly, we measured the ability of hexasaccharide 17 to compete with a fluorescent probe for protein binding. Thus, we calculated IC50 values as 17 concentration required for 50% inhibition. […] We also attempted to measure the binding of 17 to NGF.
(§4) Fluorescence polarization assays
(§5) In order to calculate IC 50 values, fluorescence polarization competition experiments were performed following our previously reported protocol. 1 Briefly, we recorded the fluorescence polarization from wells containing 20 µL of protein solution (midkine or FGF-2) and 10 µL of probe solution (a fluorescein labelled heparin-like hexasaccharide) in the presence of 10 µL of 17 solutions with different concentrations. 384-well microplates from Corning were used in these assays. After shaking in the dark for 5 min, the fluorescence polarization was measured using a TRIAD multimode microplate reader (from Dynex), with excitation and emission wavelengths of 485 and 535 nm, respectively. […]
(also on this page, place not known: r 2 Fluorescence Polarization (mP) r 2 Fluorescence Polarization (mP) r 2 Fluorescence Polarization (mP))

The target of test [5] is T3, FGF-2. The experiment in a line: Fluorescence polarization (FP) competition experiment, FGF-2. In kind it is binding. The note with it: solution FP competition with fluorescent heparin-like hexasaccharide probe (10 nM), FGF-2 97 nM; average ± SD of three independent experiments.
Text: as §3, §4, §5
(also on this page, place not known: r 2 Fluorescence Polarization (mP) IC50 r 2 Fluorescence Polarization (mP) IC50 r 2 Fluorescence Polarization (mP))
In general terms: Polarisation of emitted light reports the rotation of a fluorescent probe.
Target sequence in this assay (P09038 143-288): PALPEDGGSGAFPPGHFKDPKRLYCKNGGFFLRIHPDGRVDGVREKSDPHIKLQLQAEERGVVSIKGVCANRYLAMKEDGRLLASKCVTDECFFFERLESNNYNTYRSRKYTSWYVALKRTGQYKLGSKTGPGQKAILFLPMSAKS

Test [6] has as its target T4, Concanavalin A (Canavalia ensiformis, UniProt P02866).
T4 construct: purchased Sigma
The experiment in a line: Sugar-coated microplate control with FITC-labelled Concanavalin A. In kind it is binding. The note with it: fluorescently labelled protein at 11 µM. How it is done:
(§6) Importantly, we performed a control experiment in which sugar 3, instead of hexamer 17, was immobilized on the fluorous-functionalized plate (see Supplementary Materials). […] In addition, wells coated with hexamer 17 were incubated with two fluorescently labelled non-GAG binding proteins, Concanavalin A and bovine serum albumin, at 11 µM concentration (see Supplementary Materials). Again, we observed no fluorescence signals from these wells.
(§7) 2. Control experiments using additional (irrelevant) proteins.
(§8) The wells of Nunc Immobilizer AminoTM 384 microtiter plates were functionalized with heptadecafluorononylamine linker and then filled with a solution of hexamer 17 as described in the Materials and Methods section of the main text. The resulting hexasaccharide 17-coated wells were ready to perform protein interaction studies. Blank wells were coated with the fluorous linker alone. […]
(§9) Finally, the fluorescence was read at 535 nm using a TRIAD multimode microplate reader (from Dynex). For each protein, the residual fluorescence intensities obtained from blank samples were subtracted from the sugar-coated well values. In Figure S4, we show the average fluorescence intensities of three replicates after incubation with BSA and ConA. For comparison purposes, we also display the fluorescence values obtained after incubation with a 375 nM solution of midkine (detected by antibody incubations). […]

Test [7] addresses T5, bovine serum albumin (Bos taurus, UniProt P02769).
T5 construct: purchased Sigma-Aldrich
In words: Sugar-coated microplate control with FITC-labelled bovine serum albumin. In kind it is binding. The note with it: fluorescently labelled protein at 11 µM. The procedure: as §6, §7, §8, §9

The mark [8] stands for this setting: read-out: KD,surf, sugar immobilized on fluorous-functionalized microplate, one-site binding model.

Several values for one entry are separate records, joined by “and”; a condition that tells them apart may be missing. Identical values can stand only once. Entries after “also recorded” stand apart in the source; their conditions may differ. Like-named read-outs stand apart in the source and are kept apart here.

The values below come from publication PMC6515340, “Synthesis of a Fluorous-Tagged Hexasaccharide and Interaction with Growth Factors Using Sugar-Coated Microplates” (Molecules, 2019).

T1 sequence (P01138 122-241): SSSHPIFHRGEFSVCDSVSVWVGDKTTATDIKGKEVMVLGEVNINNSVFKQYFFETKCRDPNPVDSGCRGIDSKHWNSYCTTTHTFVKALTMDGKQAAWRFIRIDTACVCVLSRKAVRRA
T5 sequence (P02769 25-607): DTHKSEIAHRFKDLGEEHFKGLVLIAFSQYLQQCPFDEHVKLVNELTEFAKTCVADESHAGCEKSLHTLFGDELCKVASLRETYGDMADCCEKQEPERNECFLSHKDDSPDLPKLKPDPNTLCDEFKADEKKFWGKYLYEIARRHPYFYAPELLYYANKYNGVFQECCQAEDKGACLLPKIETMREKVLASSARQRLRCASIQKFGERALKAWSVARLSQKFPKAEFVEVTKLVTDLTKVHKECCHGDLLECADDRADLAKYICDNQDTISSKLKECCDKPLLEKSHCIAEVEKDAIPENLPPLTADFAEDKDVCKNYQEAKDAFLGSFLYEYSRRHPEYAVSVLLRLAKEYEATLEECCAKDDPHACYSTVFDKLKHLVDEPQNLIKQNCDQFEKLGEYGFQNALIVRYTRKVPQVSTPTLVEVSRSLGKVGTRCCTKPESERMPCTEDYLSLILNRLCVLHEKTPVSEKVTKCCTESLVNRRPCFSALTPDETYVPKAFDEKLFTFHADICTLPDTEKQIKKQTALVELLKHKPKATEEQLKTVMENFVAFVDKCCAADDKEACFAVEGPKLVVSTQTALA

On to `COc1ccc(O[C@@H]2O[C@H](COC(=O)CCC(F)(F)C(F)(F)C(F)(F)C(F)(F)C(F)(F)C(F)(F)C(F)(F)C(F)(F)F)[C@@H](O)[C@H](OCc3ccccc3)[C@H]2OC(=O)c2ccccc2)cc1` [Compound 3], for which the “fluorescence signal / interaction of immobilized sugar with NGF” value in test [1] (control, sugar immobilized from 250 µM solution, 1.8 µM NGF) was “did not significantly interact; also recorded: No fluorescence signals above background”. Further, the “fluorescence signal / interaction of immobilized sugar with midkine” value in test [2] (control, sugar immobilized from 250 µM solution, 375 nM midkine) is recorded as “did not significantly interact; also recorded: No fluorescence signals above background”. Besides, the “fluorescence signal / interaction of immobilized sugar with FGF-2” value in test [3] (control, sugar immobilized from 250 µM solution, 387 nM FGF-2) is listed as “did not significantly interact; also recorded: No fluorescence signals above background”.

Take `COc1ccc(OC2OC(COC(=O)CCC(F)(F)C(F)(F)C(F)(F)C(F)(F)C(F)(F)C(F)(F)C(F)(F)C(F)(F)F)C(OC3OC(COS(=O)(=O)O)C(OS(=O)(=O)O)C(OC4OC(COC(=O)C(C)(C)C)C(OC5OC(COS(=O)(=O)O)C(OS(=O)(=O)O)C(OC6OC(COC(=O)C(C)(C)C)C(OC7OC(COS(=O)(=O)O)C(OS(=O)(=O)O)C(OC(=O)CCC(C)=O)C7N7C(=O)c8ccccc8C7=O)C(OCc7ccccc7)C6OC(=O)c6ccccc6)C5N5C(=O)c6ccccc6C5=O)C(OCc5ccccc5)C4OC(=O)c4ccccc4)C3N3C(=O)c4ccccc4C3=O)C(OCc3ccccc3)C2OC(=O)c2ccccc2)cc1` (centres unmarked) [Compound 17]: the IC50 was 428 nM and 479 nM and 431 nM in test [4] (Figure S1, individual competition curves, probe 10 nM, read-out: IC50 (single independent experiment)); 450 ± 30 nM in test [4] (solution FP competition with fluorescent heparin-like hexasaccharide probe (10 nM), average ± SD of three independent experiments, read-out: IC50); 6.3 ± 1.6 µM in test [5]. Moreover, the results for the Kd in test [1] (setting [8]), in test [2] (setting [8]) and in test [3] (setting [8]) were 1600 ± 400 nM, 16 ± 5 nM and 57 ± 10 nM, respectively. Besides, in test [6], the “interaction of immobilized sugar with Concanavalin A” value was “did not interact”. Also, the “interaction of immobilized sugar with bovine serum albumin” value in test [7] was “did not interact”.

One may read the IC50 as the point on the concentration scale where inhibition reaches its midpoint. The term Kd denotes a measure of binding affinity in units of concentration.
